Test results as given in US12590057B2, “Crystalline complexes” (Theracryf PLC, priority 2020, dated 2026).

Columns and labels:
Format in all cases: physicochemical
[1] = Variable humidity XRPD (VH-XRPD) at 25° C.; conditions: 25° C.
Text: Non-ambient conditions: XRPD diffractograms were collected on a PANalytical Empyrean diffractometer using Cu Kα radiation (45 kV, 40 mA) in reflection geometry. The instrument is fitted with an Anton Paar CHC plus^+ stage fitted with graphite/Kapton windows and equipped with air cooling coupled with a proUmid MHG32 Modular Humidity Generator or a low vacuum pump system using an Edwards RV3 pump. A programmable divergence slit (in automatic mode), with a 10 mm fixed incident beam mask, Ni filter and 0.04 rad Soller slits were used on the incident beam. A PIXcel^3D detector, placed on the diffracted beam, was fitted with a programmable anti-scatter slit (in automatic mode) and 0.04 rad Soller slits. The software used for data collection was X'Pert Data Collector and the data analysed and presented using Diffrac Plus EVA or Highscore Plus. For variable humidity (VH-XRPD) experiments the samples were prepared and analysed in an Anton Paar chromed low-profile sample holder with silicon wafer insert. The measurement parameters are as per the standard screening data collection method (detailed above). For all variable humidity XRPD experiments, a pattern was recorded every hour. […] The Form 1 sample was loaded into the VH chamber, which was set to 40% RH and 25° C. and then the RH was decreased in 10% decrements to 10% RH followed by increasing the RH in 10% increments to 90% RH, while maintaining the temperature at 25° C. […] The sample then quickly transitioned from Form 1 at 80% RH to Form 2 at 90% RH. A variable humidity (VH) XRPD experiment was performed to examine how Form 3 exists under different RH conditions. […] The sample was stable as Form 2 for 8 hours at 80% RH. At 90% RH Form 2 existed for 2 hours before the sample deliquesced in the humidity chamber.

[2] = Typical water content of the crystalline forms
Experimental: The water content of a sample can be determined by any suitable means as will be apparent to one of skill in the art. In one embodiment, the water content is determined by Karl-Fischer titration. In one embodiment, the water content is determined by thermogravimetric analysis (TGA). In one embodiment, the water content is determined by gravimetric vapour sorption (GVS). After formation of the crystalline complex according to the invention, the water content may be as low as 1-3% w/w. However, after exposure of the complex to ambient conditions (25° C., 40% RH) the material typically equilibrates (e.g. over a period of 3-7 days) to a water content of up to 5-7% w/w. It has been found, however, that Form 3, once equilibrated to 5-7% w/w water, maintains physical form at 60% RH making it unexpectedly stable over the 0% and 60% humidity range.

[3] = XRPD physical form after storage; conditions: double bagged in HDPE bottle
Experimental: XRPD diffractograms were collected on a PANalytical Empyrean diffractometer using Cu Kα radiation (45 kV, 40 mA) in transmission geometry. A 0.5° sat, 4 mm mask and 0.04 rad Soller slits with a focusing mirror were used on the incident beam. A PIXcel^3D detector, placed on the diffracted beam, was fitted with a receiving slit and 0.04 rad Soller slits. The software used for data collection was X'Pert Data Collector using X'Pert Operator Interface. The data were analysed and presented using Diffrac Plus EVA or HighScore Plus.
After removal from the vacuum oven (day 0), Example 3 was reanalysed by XRPD in reflection mode on days 7, 9 and 29.
(§1) In a separate study, samples of Form 3 (Example 5.3; batch ref. 491-PAL-18) having an initial water content by KF of 2.3% w/w were tested for water content at various time points after storage double bagged in a HDPE bottle under various conditions as shown in Table 17.

[4] = Preliminary stability study, related substances by HPLC
Experimental: Analysis of samples of sulforaphane:alpha-cyclodextrin complexes as prepared herein were carried out by HPLC according to the following method: • Column—Phenomenex Gemini C18, 5 μm, 110 Å, 250×4.6 mm; • Mobile Phase A: Water (+0.1% TFA); • Mobile Phase B: Acetonitrile (+0.1% TFA); • Flow: 1.5 mL/min; • Injection Volume: 10 μL; • Column Temperature: 25° C.; • Run Time: 40 minutes; • Sample preparation—Accurately weighed and transferred about 320 mg±30 mg of the sample to a 25-mL volumetric flask, added about 15 mL of diluent (70% water, 30% acetonitrile, 0.1% TFA) and mixed until dissolved. Diluted to volume with diluent and mixed. Transferred 3-4 mL to a syringe and filtered using a 0.45 PTFE filter, discarding the first 1-2 ml, and filtered into an autosampler vial and sealed with PTFE lined cap (prepared in duplicate); • HPLC Gradient according to Table 12
Sulforaphane and certain related impurity peaks are summarised in Table 13, Characterisation of the impurities was carried out by LC-MS and ^1H-NMR. Relative Retention Times (RRT) are based on the HPLC method described above.
Samples of Form 1 (batch ref. LS19-0004-S-8002), Form 3 prepared by minimally-agitated drying (Example 5.3; batch ref. 491-PAL-18) and Form 3 prepared by continuously-agitated filter drying (Example 5B—trial 5; batch ref. 00173-005) were stored at 5° C. (Table 14) and at 25° C./60% RH (Table 15) for 8 weeks in 60 ml Duma® bottles fitted with 45 mm Duma® caps and samples were analysed by HPLC according to the above method.

[5] = KF water content of stability samples
Experimental: The water content of each sample was measured on a Metrohm 874 Oven Sample Processor at 150° C. with 851 Titrano Coulometer using Hydranal Coulomat AG oven reagent and nitrogen purge. Weighed solid samples were introduced into a sealed sample vial. Approximately 10 mg of sample was used per titration and duplicate determinations were made. […] Data collection and analysis were performed using Tiamo software.
The water content of samples of Form 1 (batch ref. LS19-0004-3-8002), Form 3 prepared by minimally-agitated drying ([…]; batch ref. 491-PAL-18) and Form 3 prepared by continuously-agitated filter drying (Example 5B trial 5; batch ref. 00173-005) was analysed by KF at the start of the stability study (initial) and after 2, 4 and 8 weeks storage in 60 ml Duma® bottles fitted with 45 mm Duma® caps (without desiccant) at 25° C./60% RH—see Table 16;
as §1

[6] = 25° C./60% RH stability, Initial
[7] = 2 weeks, Duma bottles without desiccant, 25° C./60% RH
[8] = 4 weeks, Duma bottles without desiccant, 25° C./60% RH
[9] = 8 weeks, Duma bottles without desiccant, 25° C./60% RH
[10] = Initial, Duma bottles without desiccant, 25° C./60% RH study

## C[S+]([O-])CCCCN=C=S.OCC1OC2OC3C(CO)OC(OC4C(CO)OC(OC5C(CO)OC(OC6C(CO)OC(OC7C(CO)OC(OC1C(O)C2O)C(O)C7O)C(O)C6O)C(O)C5O)C(O)C4O)C(O)C3O (centres unmarked) [Form 2]
[1]
  Stability at 25° C. (RH range in which the form is stable): Above 80% RH
[2]
  Typical water content: 13-20 % w/w

## C[S+]([O-])CCCCN=C=S.OC[C@H]1O[C@@H]2O[C@H]3[C@H](O)[C@@H](O)[C@@H](O[C@H]4[C@H](O)[C@@H](O)[C@@H](O[C@H]5[C@H](O)[C@@H](O)[C@@H](O[C@H]6[C@H](O)[C@@H](O)[C@@H](O[C@H]7[C@H](O)[C@@H](O)[C@@H](O[C@H]1[C@H](O)[C@H]2O)O[C@@H]7CO)O[C@@H]6CO)O[C@@H]5CO)O[C@@H]4CO)O[C@@H]3CO [Form 3 (Example 5.3)]
[3]; 1 month, 40° C./75% RH
  XRPD main peaks of stability sample: concordant with Form 3
[3]; 3 month, 25° C./60% RH
  XRPD main peaks of stability sample: concordant with Form 3
[4]; 5° C. stability, 8 wk
  Related substances, HPLC RRT 0.56 (Dimer): <0.05 % Area
  Related substances, HPLC RRT 0.60 (α-CD adduct): 1.19 % Area
  Related substances, HPLC RRT 1.14 (Mixed dimer): 0.05 % Area
  Related substances, HPLC RRT 1.21 (Erysolin): 0.28 % Area
  Related substances, HPLC RRT 1.58 (Thioether dimer): 0.07 % Area
  Related substances, Total Impurities: 1.98 % Area
[4]; 5° C. stability, Initial
  Related substances, HPLC RRT 0.56 (Dimer): <0.05 % Area
  Related substances, HPLC RRT 0.60 (α-CD adduct): 0.95 % Area
  Related substances, HPLC RRT 1.14 (Mixed dimer): 0.05 % Area
  Related substances, HPLC RRT 1.21 (Erysolin): 0.29 % Area
  Related substances, HPLC RRT 1.58 (Thioether dimer): 0.08 % Area
  Related substances, Total Impurities: 1.71 % Area
[4]; 25° C./60% RH stability, 8 wk
  Related substances, HPLC RRT 0.56 (Dimer): 0.26 % Area
  Related substances, HPLC RRT 0.60 (α-CD adduct): 3.21 % Area
  Related substances, HPLC RRT 1.14 (Mixed dimer): 0.05 % Area
  Related substances, HPLC RRT 1.21 (Erysolin): 0.27 % Area
  Related substances, HPLC RRT 1.58 (Thioether dimer): 0.07 % Area
  Related substances, Total Impurities: 4.57 % Area
[4]; [6]
  Related substances, HPLC RRT 0.56 (Dimer): <0.05 % Area
  Related substances, HPLC RRT 0.60 (α-CD adduct): 0.95 % Area
  Related substances, HPLC RRT 1.14 (Mixed dimer): 0.05 % Area
  Related substances, HPLC RRT 1.21 (Erysolin): 0.29 % Area
  Related substances, HPLC RRT 1.58 (Thioether dimer): 0.08 % Area
  Related substances, Total Impurities: 1.71 % Area
[5]; [7]
  KF water content: 2.5 % w/w
[5]; [8]
  KF water content: 2.1 % w/w
[5]; 5° C., 1 month, double bagged in HDPE bottle
  KF water content: 4.2 % w/w
[5]; 5° C., 3 months, double bagged in HDPE bottle
  KF water content: 4.6 % w/w
[5]; 5° C., 6 months, double bagged in HDPE bottle
  KF water content: 4.7 % w/w
[5]; 5° C., Initial, double bagged in HDPE bottle
  KF water content: 2.3 % w/w
[5]; [9]
  KF water content: 3.2 % w/w
[5]; 25° C./60% RH, 1 month, double bagged in HDPE bottle
  KF water content: 6.1 % w/w
[5]; 25° C./60% RH, 3 months, double bagged in HDPE bottle
  KF water content: 5.7 % w/w
[5]; 25° C./60% RH, 6 months, double bagged in HDPE bottle
  KF water content: 6.1 % w/w
[5]; 25° C./60% RH, Initial, double bagged in HDPE bottle
  KF water content: 2.3 % w/w
[5]; 40° C./75% RH, 1 month, double bagged in HDPE bottle
  KF water content: 6.2 % w/w
[5]; 40° C./75% RH, 3 months, double bagged in HDPE bottle
  KF water content: 6.2 % w/w
[5]; 40° C./75% RH, Initial, double bagged in HDPE bottle
  KF water content: 2.3 % w/w
[5]; [10]
  KF water content: 2.4 % w/w

## C[S+]([O-])CCCCN=C=S.OC[C@H]1O[C@@H]2O[C@H]3[C@H](O)[C@@H](O)[C@@H](O[C@H]4[C@H](O)[C@@H](O)[C@@H](O[C@H]5[C@H](O)[C@@H](O)[C@@H](O[C@H]6[C@H](O)[C@@H](O)[C@@H](O[C@H]7[C@H](O)[C@@H](O)[C@@H](O[C@H]1[C@H](O)[C@H]2O)O[C@@H]7CO)O[C@@H]6CO)O[C@@H]5CO)O[C@@H]4CO)O[C@@H]3CO [Form 3 (Example 5B-trial 5)]
[4]; 5° C. stability, 8 wk
  Related substances, HPLC RRT 0.56 (Dimer): 0.15 % Area
  Related substances, HPLC RRT 0.60 (α-CD adduct): 0.42 % Area
  Related substances, HPLC RRT 1.14 (Mixed dimer): 0.05 % Area
  Related substances, HPLC RRT 1.21 (Erysolin): 0.29 % Area
  Related substances, HPLC RRT 1.58 (Thioether dimer): <0.05 % Area
  Related substances, Total Impurities: 1.30 % Area
[4]; 5° C. stability, Initial
  Related substances, HPLC RRT 0.56 (Dimer): 0.15 % Area
  Related substances, HPLC RRT 0.60 (α-CD adduct): 0.36 % Area
  Related substances, HPLC RRT 1.14 (Mixed dimer): <0.05 % Area
  Related substances, HPLC RRT 1.21 (Erysolin): 0.28 % Area
  Related substances, HPLC RRT 1.58 (Thioether dimer): <0.05 % Area
  Related substances, Total Impurities: 1.16 % Area
[4]; 25° C./60% RH stability, 8 wk
  Related substances, HPLC RRT 0.56 (Dimer): 0.28 % Area
  Related substances, HPLC RRT 0.60 (α-CD adduct): 1.15 % Area
  Related substances, HPLC RRT 1.14 (Mixed dimer): 0.06 % Area
  Related substances, HPLC RRT 1.21 (Erysolin): 0.28 % Area
  Related substances, HPLC RRT 1.58 (Thioether dimer): <0.05 % Area
  Related substances, Total Impurities: 2.35 % Area
[4]; [6]
  Related substances, HPLC RRT 0.56 (Dimer): 0.15 % Area
  Related substances, HPLC RRT 0.60 (α-CD adduct): 0.36 % Area
  Related substances, HPLC RRT 1.14 (Mixed dimer): <0.05 % Area
  Related substances, HPLC RRT 1.21 (Erysolin): 0.28 % Area
  Related substances, HPLC RRT 1.58 (Thioether dimer): <0.05 % Area
  Related substances, Total Impurities: 1.16 % Area
[5]; [7]
  KF water content: 3.3 % w/w
[5]; [8]
  KF water content: 2.6 % w/w
[5]; [9]
  KF water content: 3.6 % w/w
[5]; [10]
  KF water content: 2.9 % w/w
